According to patent US20200055871A1, “ACTIVATORS OF THE RETINOIC ACID INDUCIBLE GENE "RIG-I" PATHWAY AND METHODS OF USE THEREOF” (Kineta Immuno-Oncology LLC, priority 2018, published 2020):

Key:
[1] = tested on: RIG-I deficient CT26 RIG-I−/− cells; test: CXCL10 secretion by RIG-I deficient CT26 RIG-I−/− cells (ELISA); assay type: cell-based, murine; settings: compound 5 to 20 μM, 24 h
Method: (§1) The CT26 murine colon carcinoma cell line (ATCC) was used to evaluate the induction of CXCL10 secretion. CXCL10 is an important chemokine in tumor immune biology that recruits tumor-specific T cells to the tumor. To confirm that compound-mediated CXCL10 production was RIG-I specific, RIG-1 deficient CT2-RIG-I−/−cells were generated by Kineta Inc. using CRISPR technology.
(§2) CT26 cells were seeded at a density of 1×10^4 cells per well on a 96-well tissue culture plate in 100 μL of cell culture and cells were incubated at 37° C. and 5% CO2 for 24 hr. Next, CT26 cells were treated with compounds at the indicated concentrations. CXCL10 was quantified by ELISA from supernatants taken 24 h after compound stimulation by use of the CXCL10 Duo Set ELISA kit (Cat #DY466, R&D, Minneapolis, Minn., USA) according to the manufacturer's instructions.
(§3) CXCL10 secretion by CT26 cells in response to compounds (in an amount of 5 to 20 μM) of the present disclosure is shown in Table 8. The compound-induced CXCL10 production was RIG-I dependent, since none of the compounds mediated CXCL10 secretion in RIG-I deficient CT26 RIG-I−/−cells (about 0 pg/mL of CXCL10, or below the level of quantitation). The compounds (10 μM, *20 μM, **5 μM) are indicated in the table as follows: “≠” indicates less than 100 pg/mL; “+” indicates 100-199 pg/mL; “++” indicates 200-399 pg/mL; “+++” indicates 400-799 pg/mL; “++++” indicates 800 to 1599 pg/mL; “+++++” indicates greater than or equal to 1600 pg/ml.

[2] = tested on: murine CT26 colon carcinoma cells; test: RIG-I dependent CXCL10 secretion by CT26 cells (ELISA); assay type: cell-based; settings: supernatant 24 h after stimulation
Method: as §1, §2, §3

[3] = tested on: IRF3 signaling pathway in THP1-Lucia™ ISG cells; test: THP1-Lucia ISG reporter assay: induction of IRF3-dependent gene expression (secreted luciferase); assay type: cell-based, human; settings: Homo sapiens, THP1-Lucia ISG, PMA-differentiated cells, 18 h after stimulation, read-out: fold increase of IRF3-dependent luciferase activity over background, THP1 ISG; for fold induction at 10 µM: 10 μM compound; for fold induction at 20 µM: 20 μM compound (*)
Method: The compounds were evaluated in the THP1-Lucia™ ISG (interferon stimulated genes) reporter assay to determine if the compounds activate the IRF3 signaling pathway. The THP1-Lucia™ cells (InvivoGen) express the secreted luciferase (Lucia) reporter gene under the control of an IRF-inducible promoter. The reporter cell line was developed from human monocytic leukemia THP-1 cells.
The promoter was comprised of five IFN-stimulated response elements (ISRE) fused to an ISG54 minimal promoter which is unresponsive to NF-kB or AP-1 pathways. […] The IRF3-deficient THP1-Lucia™ ISG IRF3−/−reporter cell line was generated by CRISPR technology from the parent THP1-Lucia™ ISG reporter cell line.
THP1-Lucia™ ISG cells and IRF3-deficient THP1-Lucia™ ISG IRF3−/−cells were differentiated with PMA (100 ng/ml) and stimulated with compounds at the indicated concentrations (5 to 20 μM), positive control, or not treated (background). Luciferase secretion was quantified using the QUANTI-Luc luciferase assay system (InvivoGen) 18 h after stimulation. Data are shown as fold increase luciferase activity over background in Table 7 and represent the IRF3-dependent ISG54 promoter activity by the THP1-Lucia™ ISG cells in response to compounds. […] The fold increase of compounds (10 μM, *20 μM, **5 μM) induced IRF3 dependent luciferase activity is indicated as follows: “≠” indicates less than 2.4 fold increase; “+” indicates a 2.4-4.9 fold increase; “++” indicates a 5-9.9 fold increase; “+++” indicates a 10-19 fold increase; “++++” indicates a 20-39 fold increase; “+++++” indicates greater than or equal to 40 fold increase.

Structure (SMILES) | CXCL10 secretion, CT26 RIG-I−/− [1] | CXCL10 secretion, CT26 ([2]; 20 μM compound (*)) | fold induction at 10 µM [3] | CXCL10 secretion, CT26 ([2]; 10 μM compound) | fold induction at 20 µM [3] | CXCL10 secretion, CT26 ([2]; 5 μM compound (**))
CSc1nc2c(ccc3nc(NC(=O)c4ccc5ccccc5c4)sc32)s1 [Example 19, N-[11-(methylsulfanyl)-3,10-dithia-5,12-diazatricyclo[7.3.0.0^2,^6]dodeca-1,4,6,8,11-pentaen-4-yl]naphthalene-2-carboxamide] | − | +++* (400-799 pg/mL) | 10 to 19 |  |  | 
Cn1ccc2ccc(C(=O)Nc3nc4ccc5scnc5c4s3)cc21 [Example 20, N-{3,10-dithia-5,12-diazatricyclo[7.3.0.0^2,^6]dodeca-1,4,6,8,11-pentaen-4-yl}-1-methyl-1H-indole-6-carboxamide] | − |  | 10 to 19 | +++ (400-799 pg/mL) |  | 
O=C(Nc1nc2ccc3scnc3c2s1)c1ccc(-c2ccccc2)cc1 [Example 21, N-{3,10-dithia-5,12-diazatricyclo[7.3.0.0^2,^6]dodeca-1,4,6,8,11-pentaen-4-yl}-[1,1′-biphenyl]-4-carboxamide] | − |  | 10 to 19 | + (100-199 pg/mL) |  | 
COc1nc2c(ccc3nc(NC(=O)c4ccc5ccccc5c4)sc32)s1 [Example 22, N-{11-methoxy-3,10-dithia-5,12-diazatricyclo[7.3.0.0^2,^6]dodeca-1,4,6,8,11-pentaen-4-yl}naphthalene-2-carboxamide] | − |  | 20 to 39 | ++ (200-399 pg/mL) |  | 
Cc1nc2c(ccc3nc(NC(=O)c4ccc5ccccc5c4)sc32)s1 [Example 23, N-{11-methyl-3,10-dithia-5,12-diazatricyclo[7.3.0.0^2,^6]dodeca-1,4,6,8,11-pentaen-4-yl}naphthalene-2-carboxamide] | − | +++++* (greater than or equal to 1600 pg/ml) | 5 to 9.9 |  |  | 
O=C(Nc1nc2ccc3scnc3c2s1)c1cc2ccccc2cc1OCCN1CCOCC1 [Example 24, N-{3,10-dithia-5,12-diazatricyclo[7.3.0.0^2,^6]dodeca-1,4,6,8,11-pentaen-4-yl}-3-[2-(morpholin-4-yl)ethoxy]naphthalene-2-carboxamide] | − |  | 20 to 39 | +++ (400-799 pg/mL) |  | 
O=C(Nc1nc2ccc3scnc3c2s1)c1cc2ccccc2cc1OCCN1CCCCC1 [Example 25, N-{3,10-dithia-5,12-diazatricyclo[7.3.0.0^2,^6]dodeca-1,4,6,8,11-pentaen-4-yl}-3-[2-(piperidin-1-yl)ethoxy]naphthalene-2-carboxamide] | − |  | 2.4 to 4.9 | ++ (200-399 pg/mL) |  | 
O=C(Nc1nc2ccc3scnc3c2s1)c1cc2ccccc2cc1OCCC1CCOCC1 [Example 27, N-{3,10-dithia-5,12-diazatricyclo[7.3.0.0^2,^6]dodeca-1,4,6,8,11-pentaen-4-yl}-3-[2-(oxan-4-yl)ethoxy]naphthalene-2-carboxamide] | − |  |  | ++ (200-399 pg/mL) | 5 to 9.9 | 
O=C(Nc1nc2ccc3scnc3c2s1)c1cc2ccccc2cc1OCCCCN1CCOCC1 [Example 28, N-{3,10-dithia-5,12-diazatricyclo[7.3.0.0^2,^6]dodeca-1,4,6,8,11-pentaen-4-yl}-3-[4-(morpholin-4-yl)butoxy]naphthalene-2-carboxamide] | − |  | 2.4 to 4.9 | ++ (200-399 pg/mL) |  | 
COc1nc2c(ccc3nc(NC(=O)c4cc5ccccc5cc4OCCN4CCOCC4)sc32)s1 [Example 29, N-{11-methoxy-3,10-dithia-5,12-diazatricyclo[7.3.0.0^2,^6]dodeca-1,4,6,8,11-pentaen-4-yl}-3-[2-(morpholin-4-yl)ethoxy]naphthalene-2-carboxamide] | − |  | 10 to 19 | + (100-199 pg/mL) |  | 
COc1nc2c(ccc3nc(NC(=O)c4cc5ccccc5cc4OCCN4CCCCC4)sc32)s1 [Example 30, N-{11-methoxy-3,10-dithia-5,12-diazatricyclo[7.3.0.0^2,^6]dodeca-1,4,6,8,11-pentaen-4-yl}-3-[2-(piperidin-1-yl)ethoxy]naphthalene-2-carboxamide] | − |  | 10 to 19 | +++ (400-799 pg/mL) |  | 
COc1nc2c(ccc3nc(NC(=O)c4cc5ccccc5cc4OCCCN4CCOCC4)sc32)s1 [Example 31, N-{11-methoxy-3,10-dithia-5,12-diazatricyclo[7.3.0.0^2,^6]dodeca-1,4,6,8,11-pentaen-4-yl}-3-[3-(morpholin-4-yl)propoxy]naphthalene-2-carboxamide] | − |  | 5 to 9.9 | ++ (200-399 pg/mL) |  | 
COc1nc2c(ccc3nc(NC(=O)c4cc5ccccc5cc4OCCCCN4CCOCC4)sc32)s1 [Example 32, N-{11-methoxy-3,10-dithia-5,12-diazatricyclo[7.3.0.0^2,^6]dodeca-1,4,6,8,11-pentaen-4-yl}-3-[4-(morpholin-4-yl)butoxy]naphthalene-2-carboxamide] | − |  | 10 to 19 | ++ (200-399 pg/mL) |  | 
O=C(Nc1nc2ccc3scnc3c2s1)c1cc2ccccc2cc1OCCN1CC2CC1CO2 (stereo not drawn) [Example 33, N-{3,10-dithia-5,12-diazatricyclo[7.3.0.0^2,^6]dodeca-1,4,6,8,11-pentaen-4-yl}-3-(2-{2-oxa-5-azabicyclo[2.2.1]heptan-5-yl}ethoxy)naphthalene-2-carboxamide] | − |  |  | ++++ (800 to 1599 pg/mL) | 10 to 19 | 
O=C(Nc1nc2ccc3scnc3c2s1)c1cc2ccccc2cc1OCCN1CC2(COC2)C1 [Example 34, N-{3,10-dithia-5,12-diazatricyclo[7.3.0.0^2,^6]dodeca-1,4,6,8,11-pentaen-4-yl}-3-(2-{2-oxa-6-azaspiro[3.3]heptan-6-yl}ethoxy)naphthalene-2-carboxamide] | − |  | 2.4 to 4.9 |  |  | +++** (400-799 pg/mL)
CSc1nc2c(ccc3nc(NC(=O)c4cc5ccccc5cc4OCCN4CCOCC4)sc32)s1 [Example 35, N-[11-(methylsulfanyl)-3,10-dithia-5,12-diazatricyclo[7.3.0.0^2,^6]dodeca-1,4,6,8,11-pentaen-4-yl]-3-[2-(morpholin-4-yl)ethoxy]naphthalene-2-carboxamide] | − | ++* (200-399 pg/mL) | 5 to 9.9 |  |  | 
